Results from article PMC12522106 (Cancer Research Communications, 2025).

Legend:
[1] = system: subcutaneous xenograft models of osteosarcoma cell lines; conditions: cited from earlier work
[2] = system: murine K7M2 osteosarcoma cells; design: method as in PMID 32599665; conditions: compared with LM7 model; cited from earlier work
[3] = system: sarcospheres from human patients with osteosarcoma; assay: Resazurin metabolic activity of human patient-derived sarcospheres; assay type: cell-based; conditions: for ED50: 48 hours, metabolic activity
Source text: (§1) Osteosarcoma tissue was obtained during standard-of-care procedures (biopsies or resections) in human patients treated at Indiana University Health and Riley Children’s Hospital with Institutional Review Board approval (#1501467439). Tissue from canine patients with osteosarcoma was obtained from standard-of-care amputations at the Purdue University College of Veterinary Medicine and the Metropolitan Veterinary Hospital. Osteosarcoma diagnosis was confirmed by review of pathology reports. Demographic and clinical information for human and canine patients is in Table 1. Primary osteosarcoma cells were isolated by collagenase/mechanical dispersion using a modification of a previously described protocol ([35]). […] The tissue was rinsed with cold PBS (Cytiva, cat. #SH30028.02) and minced prior to incubation in 10 mL of culture media containing collagenase type II (750 units/mL with 13–18 units of clostripain/mL, Worthington, cat. #LS004176) for 3 hours at 37°C and 5% CO2. The media and tissue fragments were centrifuged at 200 g for 5 minutes. Pellets with a visible layer of red blood cells were then treated with 5 mL of ACK Lysing Buffer (Gibco, cat. #A10492-01) for 1 minute and then centrifuged at 200 g for 2 minutes. Pellets were resuspended in culture media, pipetted up and down 15 times to disperse tissue fragments, and centrifuged at 200 g for 5 minutes. Finally, any remaining tissue fragments were crushed with a 25-mL pipette and transferred with released cells and culture media to a 100-mm tissue culture dish and incubated at 37°C and 5% CO2. Media were changed every 3 days. When a confluence of ∼80% was reached, the cells were passaged to 150-mm dishes at 5,000 cells/cm^2. Aliquots of the patient-derived osteosarcoma cells were frozen in 10% DMSO (Sigma-Aldrich, D2650), 40% FBS (Cytiva, SH30071.03), and 50% culture media at second passage and stored in liquid nitrogen. The TT2-77 xenoline is a patient cell line that was isolated from a patient-derived xenograft (PDX) that was previously developed and characterized by the Pollok lab ([5]).
(§2) The number of patient-derived cells required to obtain sarcospheres with 400-μm diameters was determined for each patient and varied from 1,000 to 15,000 cells per sarcosphere.
(§3) Round-bottom 96-well plates were coated with 50 μL/well of 0.5% poly 2-hydroxyethyl methacrylate (Polysciences Inc., cat. #09689-25) in 100% ethanol and incubated at 37°C for 3 days before use to obtain a nonadherent surface. […] Highly metastatic osteosarcoma cells cultured in monolayers at 50% to 80% confluence were lifted with Accutase (Innovative Cell Technologies, Inc., cat. #NC9839010), resuspended in media, and diluted to the desired concentration.

[4] = system: LM7 cell–derived lung metastases; design: method as in PMID 32599665; conditions: administration continued for the entire 21-week observation period; cited from earlier work
143B sarcospheres [5] = assay: Sarcosphere size (Incucyte); assay type: cell-based, human; conditions: initial 48-hour observation period
[6] = system: monolayers of either established osteosarcoma cell lines or PDX cell lines; design: method as in PMID 30395907, PMID 26601688, PMID 37457661, PMID 35411591; conditions: cited from earlier work
[7] = cited from earlier work
[8] = system: sarcospheres from canine patients with osteosarcoma; assay: Resazurin metabolic activity of canine patient-derived sarcospheres; assay type: cell-based; conditions: for ED50: 48 hours, metabolic activity
Source text: as §1, §2, §3

[9] = system: patient-derived sarcospheres; assay: Sarcosphere size (Incucyte); assay type: cell-based, human, canine; conditions: 48-hour observation period; sensitive and resistant samples
Protocol: as §2

[10] = system: human and canine patient-derived sarcospheres; assay: Resazurin metabolic activity of patient-derived sarcospheres, human and canine summarised together; assay type: cell-based; conditions: 48 h, the other patient samples, read-out: ED50s of romidepsin-resistant patient samples
Source text: Osteosarcoma tissue was obtained during standard-of-care procedures (biopsies or resections) in human patients treated at Indiana University Health and Riley Children’s Hospital with Institutional Review Board approval (#1501467439). Tissue from canine patients with osteosarcoma was obtained from standard-of-care amputations at the Purdue University College of Veterinary Medicine and the Metropolitan Veterinary Hospital. Osteosarcoma diagnosis was confirmed by review of pathology reports. Demographic and clinical information for human and canine patients is in Table 1. Primary osteosarcoma cells were isolated by collagenase/mechanical dispersion using a modification of a previously described protocol ([35]). […] The tissue was rinsed with cold PBS (Cytiva, cat. #SH30028.02) and minced prior to incubation in 10 mL of culture media containing collagenase type II (750 units/mL with 13–18 units of clostripain/mL, Worthington, cat. #LS004176) for 3 hours at 37°C and 5% CO2. The media and tissue fragments were centrifuged at 200 g for 5 minutes. […]
The number of patient-derived cells required to obtain sarcospheres with 400-μm diameters was determined for each patient and varied from 1,000 to 15,000 cells per sarcosphere. […]

143B sarcospheres [11] = assay: Cell cycle analysis by flow cytometry (DAPI); assay type: cell-based, human; conditions: 10 nmol/L for 24 hours
Protocol: (§4) Sarcospheres were washed with PBS to remove any media and then resuspended in Accumax Cell Detachment Solution ([…] Technologies, #07921) for 15 to 30 minutes. Sarcospheres were manually dissociated by pipetting up and down at least 10 times. Following dissociation, cells were fixed in Cytofix/Cytoperm (BD Cytofix/Cytoperm Fixation/Permeabilization Solution Kit, BDB554714) for 10 to 20 minutes at 4°C protected from light. Fixation solution was removed with two washes in sterile PBS. Cells were resuspended in PBS and stored for no more than 72 hours at 4°C. Cells were transferred to flow cytometry tubes for staining. For DAPI staining, 1 mg/mL DAPI (BD Pharmingen, #564907) was diluted 1000-fold in sterile PBS and 500 μL was added to the appropriate tubes containing an equal volume of cell suspension. Flow cytometry was performed using a BD LSRFortessa X-20 flow cytometer using a 407 laser. Cell cycle analysis was performed using the Watson model in FlowJo software (version 10.10.0).

LM7 sarcospheres = assay: Cell cycle analysis by flow cytometry (DAPI); assay type: cell-based, human; conditions: 10 nmol/L for 24 hours
Protocol: as §4

C/C=C1\NC(=O)[C@H]2CSSCC/C=C/[C@H](CC(=O)N[C@H](C(C)C)C(=O)N2)OC(=O)[C@H](C(C)C)NC1=O [romidepsin]
tumor response ([1]; mice followed for 1 week after discontinuation): tumors regressed
response after discontinuation ([1]; mice followed for 6 weeks after discontinuation): did not induce a sustained response
growth of well-established subcutaneous xenografts ([1]; small number of mice): inhibited growth
effect on lung metastases [2]: less effect
share of human patient samples whose sarcospheres responded ([3]; ED50s <70 nmol/L): ~30%
ED50 ([3]; TT2-77 Xenoline (romidepsin sensitive)): 10 nmol/L
ED50 of the notably more sensitive patient ([3]; one patient): 1 nM
ED50 ([3]; patient sample IUhOS002LR (romidepsin resistant)): >1,000 nmol/L
ED50 ([3]; patient sample IUhOS005B (romidepsin resistant)): >1,000 nmol/L
ED50 ([3]; patient sample IUhOS006B (romidepsin sensitive)): 6 nmol/L
ED50 ([3]; patient sample IUhOS013B (romidepsin resistant)): >1,000 nmol/L
ED50 ([3]; patient sample IUhOS018B (romidepsin sensitive)): 1 nmol/L
ED50 ([3]; patient sample IUhOS020LR (romidepsin sensitive)): 63 nmol/L
ED50 ([3]; patient sample IUhOS021B (romidepsin resistant)): >1,000 nmol/L
ED50 ([3]; patient sample IUhOS027P (romidepsin resistant)): >1,000 nmol/L
ED50 ([3]; patient sample IUhOS029LR (romidepsin resistant)): >1,000 nmol/L
ED50 ([3]; patient sample IUhOS0410B (romidepsin resistant)): >1,000 nmol/L
ED50 ([3]; patient sample IUhOS0410P (romidepsin resistant)): >1,000 nmol/L
ED50 ([3]; patient sample IUhOS1516B (romidepsin sensitive)): 10 nmol/L
ED50 ([3]; patient sample IUhOS1516P (romidepsin resistant)): >1,000 nmol/L
ED50 ([3]; patient sample IUhOS1925B (romidepsin resistant)): >1,000 nmol/L
ED50 ([3]; patient sample IUhOS1925P (romidepsin resistant)): >1,000 nmol/L
ED50 ([3]; patient sample IUhOS2226B (romidepsin resistant)): >1,000 nmol/L
ED50 ([3]; patient sample IUhOS2226P (romidepsin resistant)): >1,000 nmol/L
growth of lung metastases [4]: prevented
effect on sarcosphere size (143B sarcospheres [5]): inhibited the increase in size
standing in four independent screens [6]: among the top hits
most common severe adverse events [7]: thrombocytopenia and neutropenia
most common side effect [7]: Nausea
severe toxicities [7]: few severe toxicities
most concerning potential side effect ([7]; reported in humans, rats, and beagle dogs): cardiac toxicity
share of canine patient samples whose sarcospheres responded ([8]; ED50s <70 nmol/L): 50%
ED50 ([8]; canine patient sample MVHcOS001 (romidepsin resistant)): >1,000 nmol/L
ED50 ([8]; canine patient sample MVHcOS002 (romidepsin resistant)): >1,000 nmol/L
ED50 ([8]; canine patient sample MVHcOS003 (romidepsin sensitive)): 22 nmol/L
ED50 ([8]; canine patient sample MVHcOS004 (romidepsin sensitive)): 6 nmol/L
ED50 ([8]; canine patient sample MVHcOS005 (romidepsin resistant)): >1,000 nmol/L
ED50 ([8]; canine patient sample MVHcOS006 (romidepsin resistant)): >1,000 nmol/L
ED50 ([8]; canine patient sample PUcOS001 (romidepsin sensitive)): 65 nmol/L
ED50 ([8]; canine patient sample PUcOS002 (romidepsin sensitive)): 46 nmol/L
ED50 ([8]; canine patient sample PUcOS003 (romidepsin resistant)): >1,000 nmol/L
ED50 ([8]; canine patient sample PUcOS004 (romidepsin sensitive)): 57 nmol/L
effect on sarcosphere size [9]: did not change in size
EC50 [10]: > 1000 nM
cell cycle block (143B sarcospheres [11]): induced a G2–M cell cycle block
proportion of sub-G1 cells (143B sarcospheres [11]): without altering the proportion of sub-G1 cells
cell cycle block (LM7 sarcospheres): without inducing a cell cycle block
proportion of sub-G1 cells (LM7 sarcospheres): increased the proportion of sub-G1 cells
